Assays:
[1] = system: Eo (Echinochloa oryzicola); test: Example 1 field test, weed control in transplanted rice, Iri, Korea; format: in vivo; settings: av. of 36 and 63 DAT
Source text: (§1) In the field test 48 day-old seedlings (Watanabe variety) were transplanted to plots 2.5 × 6 m. seeded with the weed seeds indicated in Table 1. At 5 and 10 DAT periods, the herbicides were applied to the plants (now at the 1.2 and 2.0 leaf stage, respectively, of grass weed) at the indicated rate in kilograms per hectare (kg/ha). The weed control and rice injury results for 3 replications are reported in percentages as of the indicated times of observation. The percentages given in the "Perennials" column are based on the weight of the weeds at 63 DAT, i.e., 42 gms/3.6 m^2 for the weedy check.

[2] = system: Mv (Monochoria vaginalis); test: as above; format: in vivo; settings: av. of 36 and 63 DAT
Source text: as §1

[3] = system: Aj (Aneiliema japonica); test: as above; format: in vivo; settings: av. of 36 and 63 DAT
Source text: as §1

[4] = system: Ci (Cyperus iria); test: as above; format: in vivo; settings: av. of 36 and 63 DAT
Source text: as §1

[5] = system: Ec (Echinochloa crusgalli); test: Example 5 field test, weed control, JAAPR, Japan; format: in vivo
Procedure: (§2) The rice seedlings were grown to the 1.7 leaf stage for infant seedlings and to the 5.5 leaf stage for ordinary seedlings. Two days after puddling the soil in which the seedlings were to be transplanted, both infant and ordinary seedlings were transplanted into plots 8.5 m^2.
(§3) The weed symbol "Obw" represents "other broadleaf weeds" of unspecified identity.

[6] = system: transplanted rice; test: Example 1 field test, rice injury; format: in vivo, rice (Watanabe variety)
Source text: as §1

[7] = system: transplanted rice; test: Example 2 field test, crop injury; settings: obs. 63 DAT
Procedure: In the tests described in the tables below, the herbicides were formulated and used in granular form in conventional manner. […] The commercial herbicide used was a granular product having 5% active ingredient.
In the field tests of the herbicide of this invention with transplanted rice, the rice seedlings were grown in conventional manner, by seeding the rice in a typical seedbed of sandy loam to clay soil of the country wherein the test was conducted. For laboratory and greenhouse work the seedlings were obtained by seeding rice in a mixture of soil, e.g., Ray silt loam, and peat in wood flats. For purposes of testing the herbicides on younger rice seedlings (infant or Dapog) the rice was usually allowed to grow for 6-15 days before lifting for transplanting. Older (ordinary) rice plants were usually grown for a period of about 2-3 weeks, or as much as about 7 weeks before lifting. Since the period of growth is dependent upon climatic conditions, a better measure of when to transplant the rice seedling is the leaf stage of growth; for infant or Dapog rice the seedling is lifted at the 1.5-2 leaf stage of growth, and for ordinary seedlings at the 2.5-5 leaf stage. The seedlings were then transplanted to the test plots for evaluation of the herbicide for injury against weed species present with the transplanted rice. The herbicides were then applied to the growth medium of the weeds and transplant rice, either preemergent or postemergent with respect to the weeds and postemergent with respect to the transplanted rice. Application times are designated in the tables as "DAT", meaning "days after transplant". Application rates given in the tables refer to the amount of active ingredient used.
Rice seedlings (ordinary) of Tainan No. 5 variety (japonica) were transplanted at 19 days of growth. Granular formulations of Herbicides A and B were applied at the 1 leaf stage of grass weed (4 DAT) and 2.5 leaf stage of grass weed (10 DAT). Observations were made at 63 DAT and results reported in Table 2 as an average of 3 replications.

[8] = system: Ea (Eleocharis acicularis); test: Example 5 field test, weed control, JAAPR, Japan; format: in vivo
Procedure: as §2, §3

[9] = system: weeds in upland direct-seeded rice; test: Example 7 overall; format: in vivo; settings: direct-seeded rice cultures
Procedure: In a further comparative study of the preemergence activity of Herbicides A and B, a variety of weeds and upland direct-seeded rice were tested under greenhouse conditions. The present invention is not concerned with the use of Herbicide A in direct-seeded rice. The primary purpose of the experimental work in this example is to compare relative herbicidal activity of Herbicides A and B against the weeds shown in Table 7; most of these weeds were not available for tests with transplanted rice. Although the relative selectivity of these herbicides in upland rice is also evident, that aspect of the tests is more or less incidental to the purpose of this example.
In this example, rice seeds and seeds of the weeds shown in Table 7 were sown in Ray silt loam soil at a depth of 0.5 inch (1.27 cm) in containers for the soil in a greenhouse. Herbicides A and B were applied to the surface of the soil at a spray volume equivalent to 20 gals/acre (187.1 liters/hectare), followed by 0.5 in (1.27 cm) of overhead irrigation. Temperature and relative humidity in the greenhouse were on the order of 85°F (29°C) and 75%, respectively. Observations were made at 21-28 days after seeding. […]

[10] = 1.0 kg/ha, 15 DAT, infant seedlings
[11] = 1.0 kg/ha, 15 DAT, ordinary seedlings
[12] = .25 kg/ha, 2 DAT, infant seedlings
[13] = .25 kg/ha, 2 DAT, ordinary seedlings
[14] = .5 kg/ha, 7 DAT, infant seedlings
[15] = .5 kg/ha, 7 DAT, ordinary seedlings

CCCCOCN(C(=O)CCl)c1c(C)cccc1C(C)(C)C [Herbicide A, n-(butoxymethyl)-6'-tert-butyl-2-chloro-o-acetotoluidide]
% Weed Control (Eo) ([1]; 5 DAT, 1.0 kg/ha): 91%
% Weed Control (Eo) ([1]; 5 DAT, 2.0 kg/ha): 94%
% Weed Control (Eo) ([1]; 5 DAT, .25 kg/ha): 86%
% Weed Control (Eo) ([1]; 5 DAT, .5 kg/ha): 93%
% Weed Control (Eo) ([1]; 10 DAT, 1.0 kg/ha): 90%
% Weed Control (Eo) ([1]; 10 DAT, 2.0 kg/ha): 92%
% Weed Control (Eo) ([1]; 10 DAT, .25 kg/ha): 82%
% Weed Control (Eo) ([1]; 10 DAT, .5 kg/ha): 88%
% Weed Control (Mv) ([2]; 5 DAT, 1.0 kg/ha): 89%
% Weed Control (Mv) ([2]; 5 DAT, 2.0 kg/ha): 82%
% Weed Control (Mv) ([2]; 5 DAT, .25 kg/ha): 72%
% Weed Control (Mv) ([2]; 5 DAT, .5 kg/ha): 80%
% Weed Control (Mv) ([2]; 10 DAT, 1.0 kg/ha): 72%
% Weed Control (Mv) ([2]; 10 DAT, 2.0 kg/ha): 83%
% Weed Control (Mv) ([2]; 10 DAT, .25 kg/ha): 53%
% Weed Control (Mv) ([2]; 10 DAT, .5 kg/ha): 80%
% Weed Control (Aj) ([3]; 5 DAT, 1.0 kg/ha): 81%
% Weed Control (Aj) ([3]; 5 DAT, 2.0 kg/ha): 86%
% Weed Control (Aj) ([3]; 5 DAT, .25 kg/ha): 66%
% Weed Control (Aj) ([3]; 5 DAT, .5 kg/ha): 84%
% Weed Control (Aj) ([3]; 10 DAT, 1.0 kg/ha): 79%
% Weed Control (Aj) ([3]; 10 DAT, 2.0 kg/ha): 88%
% Weed Control (Aj) ([3]; 10 DAT, .25 kg/ha): 73%
% Weed Control (Aj) ([3]; 10 DAT, .5 kg/ha): 79%
% Weed Control (Ci) ([4]; 5 DAT, 1.0 kg/ha): 100%
% Weed Control (Ci) ([4]; 5 DAT, 2.0 kg/ha): 95%
% Weed Control (Ci) ([4]; 5 DAT, .25 kg/ha): 85%
% Weed Control (Ci) ([4]; 5 DAT, .5 kg/ha): 95%
% Weed Control (Ci) ([4]; 10 DAT, 1.0 kg/ha): 97%
% Weed Control (Ci) ([4]; 10 DAT, 2.0 kg/ha): 93%
% Weed Control (Ci) ([4]; 10 DAT, .25 kg/ha): 74%
% Weed Control (Ci) ([4]; 10 DAT, .5 kg/ha): 98%
% Weed Control (Ec) [5, 10]: 100%
% Weed Control (Ec) [5, 11]: 100%
% Weed Control (Ec) [5, 12]: 100%
% Weed Control (Ec) [5, 13]: 100%
% Weed Control (Ec) [5, 14]: 100%
% Weed Control (Ec) [5, 15]: 100%
control of Ec in words ([5]; both plots, all rates): controlled
% Rice Injury ([6]; 5 DAT, 1.0 kg/ha, obs. 21 DAT): 5%
% Rice Injury ([6]; 5 DAT, 1.0 kg/ha, obs. 42 DAT): 0%
% Rice Injury ([6]; 5 DAT, 2.0 kg/ha, obs. 21 DAT): 10%
% Rice Injury ([6]; 5 DAT, 2.0 kg/ha, obs. 42 DAT): 0%
% Rice Injury ([6]; 5 DAT, .25 kg/ha, obs. 21 DAT): 0%
% Rice Injury ([6]; 5 DAT, .25 kg/ha, obs. 42 DAT): 0%
% Rice Injury ([6]; 5 DAT, .5 kg/ha, obs. 21 DAT): 0%
% Rice Injury ([6]; 5 DAT, .5 kg/ha, obs. 42 DAT): 0%
% Rice Injury ([6]; 10 DAT, 1.0 kg/ha, obs. 21 DAT): 0%
% Rice Injury ([6]; 10 DAT, 1.0 kg/ha, obs. 42 DAT): 0%
% Rice Injury ([6]; 10 DAT, 2.0 kg/ha, obs. 21 DAT): 10%
% Rice Injury ([6]; 10 DAT, 2.0 kg/ha, obs. 42 DAT): 0%
% Rice Injury ([6]; 10 DAT, .25 kg/ha, obs. 21 DAT): 0%
% Rice Injury ([6]; 10 DAT, .25 kg/ha, obs. 42 DAT): 0%
% Rice Injury ([6]; 10 DAT, .5 kg/ha, obs. 21 DAT): 0%
% Rice Injury ([6]; 10 DAT, .5 kg/ha, obs. 42 DAT): 0%
early season injury to rice ([6]; Example 1, outgrown): slight early season injury to rice was outgrown
% Crop Injury, stand ([7]; 4 DAT, 1.0 kg/ha): 0%
% Crop Injury, vigor ([7]; 4 DAT, 1.0 kg/ha): 0%
% Crop Injury, stand ([7]; 4 DAT, 2.0 kg/ha): 5%
% Crop Injury, vigor ([7]; 4 DAT, 2.0 kg/ha): 27%
% Crop Injury, stand ([7]; 4 DAT, .25 kg/ha): 0%
% Crop Injury, vigor ([7]; 4 DAT, .25 kg/ha): 0%
% Crop Injury, stand ([7]; 4 DAT, .5 kg/ha): 0%
% Crop Injury, vigor ([7]; 4 DAT, .5 kg/ha): 0%
% Crop Injury, stand ([7]; 10 DAT, 1.0 kg/ha): 3%
% Crop Injury, vigor ([7]; 10 DAT, 1.0 kg/ha): 7%
% Crop Injury, stand ([7]; 10 DAT, 2.0 kg/ha): 15%
% Crop Injury, vigor ([7]; 10 DAT, 2.0 kg/ha): 25%
% Crop Injury, stand ([7]; 10 DAT, .25 kg/ha): 0%
% Crop Injury, vigor ([7]; 10 DAT, .25 kg/ha): 0%
% Crop Injury, stand ([7]; 10 DAT, .5 kg/ha): 0%
% Crop Injury, vigor ([7]; 10 DAT, .5 kg/ha): 2%
% Weed Control (Ea) [8, 10]: 89%
% Weed Control (Ea) [8, 11]: 90%
% Weed Control (Ea) [8, 12]: 87%
% Weed Control (Ea) [8, 13]: 79%
% Weed Control (Ea) [8, 14]: 89%
% Weed Control (Ea) [8, 15]: 98%
activity vs Herbicide B in direct-seeded rice [9]: significantly more active

— patent US3955959A, “Herbicide for use in transplanted rice” (priority 1974, dated 1976)
